Laboratory results published in patent US4678666A, “Topical anti-inflammatory compositions” (Pfizer Inc., priority 1982, dated 1987).
Entries after “also recorded” stand apart in the source; their conditions may differ. Like-named read-outs stand apart in the source and are kept apart here.

Columns and labels:
[1] = tested on: carragenin-induced foot edema; assay: Carragenin-induced rat foot edema test; assay type: in vivo; conditions: oral administration, 1 mg./kg.
Method: The anti-inflammatory activity of the compositions of this invention was determined using the standard carragenin-induced rat foot edema test. [C. A. Winter et al., Proceedings of the Society for Experimental Biology and Medicine, Vol. 111, p. 544 (1962)]. Piroxicam ointment (1%), prepared according to Example 10, was administered topically at a dose level of 100 mg. per rat. The results obtained are presented in the table below (Table 6) in terms of the percent inhibition of edema formation, as compared to the non-drug treated control and the oral administration of piroxicam (1 mg./kg.): […]

[2] = words, background; cited from earlier work
[3] = Solubility of Piroxicam with solubilizers; assay type: physicochemical
Excerpt: This invention employs a solubilizing agent to dissolve piroxicam in bases for formulation; the piroxicam-solubilizing agent is selected from the class of alkanolamines. […] The monoalkanolamines have from one to four carbon atoms and include methanolamine, ethanolamine, propanolamine and butanolamine. The dialkanolamines have from two to eight carbon atoms and include dimethanolamine, diethanolamine, dipropanolamine and dibutanolamine. The trialkanolamines have from three to twelve carbon atoms and include trimethanolamine, triethanolamine, tripropanolamine and tributanolamine.

[4] = cited from earlier work
[5] = At a higher pH than 9.0; cited from earlier work

Row | SMILES | % Inhibition of edema [1] | Liposolubility [2] | Solubility in water [2] | Solubility of Piroxicam ([3]; Ammonia 10%, solvent: water) | Solubility of Piroxicam ([3]; Control (none), no solubilizer, solvent: water) | Solubility of Piroxicam ([3]; Di-isopropanolamine 10%, solvent: water) | Solubility of Piroxicam ([3]; Di-isopropyl adipate 10%, solvent: 1:1 water-ethanol) | Solubility of Piroxicam ([3]; Diethanolamine 10%, solvent: water) | Solubility of Piroxicam ([3]; Diethyl sebacate 10%, solvent: 1:1 water-ethanol) | Solubility of Piroxicam ([3]; Ethanolamine 10%, solvent: water) | Solubility of Piroxicam ([3]; Isopropyl myristate 10%, solvent: 1:1 water-ethanol) | Solubility of Piroxicam ([3]; N-Ethyl-o-crotonotoluidide 10%, solvent: 1:1 water-ethanol) | Absorption through skin ([4]; compounded in suspension with conventional bases for ointment or cream) | Absorption through skin ([4]; tincture, dissolved in an alcoholic solvent such as ethanol) | Chemical stability [5] | Solubility relative to piroxicam [2]
1 | CN1C(C(=O)Nc2ccccn2)=C(O)c2ccccc2S1(=O)=O [Piroxicam, N-(2-pyridyl)-2-methyl-4-hydroxy-2H-1,2-benzothiazine-3-carboxamide 1,1-dioxide] | 39.6% | not liposoluble | sparingly soluble in water; also recorded: sparingly soluble in water or any other solvent | 60.0 mg/g | 0.01 mg/g | 195 mg/g | 1.2 mg/g | 204 mg/g | 2.0 mg/g | 392 mg/g | 0.4 mg/g | 1.8 mg/g | poorly absorbed through skin | will not be absorbed through the skin | chemically unstable and may even decompose or deteriorate in quality | 
2 | CN1C(C(=O)Nc2ccccn2)=C(O)c2ccccc2S1(=O)=O [hydrate] |  |  |  |  |  |  |  |  |  |  |  |  |  |  |  | less soluble than piroxicam itself
